Results published in ChEMBL document CHEMBL4842348 (J Med Chem, 2021).
≈ marks a conversion by molar mass, not a printed value.

assay: Lipophilicity, logD of the compound at pH 7.3 by HPLC analysis; type: physicochemical; details: buffer

| SMILES | logD |
| --- | --- |
| COc1cc(F)c(-c2ccc(C(=O)O)cc2C)cc1-c1ccc(F)cc1[C@@H]1CC[C@H]2[C@@H](c3cc(C(F)(F)F)cc(C(F)(F)F)c3)OC(=O)N12 | 5.1 |
| COc1ccc(-c2ccc(C(=O)O)cc2C)cc1-c1cnc(C(F)(F)F)cc1[C@@H]1CC[C@H]2[C@@H](c3cc(C(F)(F)F)cc(C(F)(F)F)c3)OC(=O)N12 | 4.8 |
| COc1ncc(-c2ccc(C(=O)O)cc2C)cc1-c1cc(C(F)(F)F)c(OC)nc1CN1C(=O)O[C@H](c2cc(C(F)(F)F)cc(C(F)(F)F)c2)[C@@H]1C | 5.7 |
| COc1ccc(-c2ccc(C(=O)O)cc2C)cc1-c1cnc(C(F)(F)F)nc1CN1C(=O)O[C@H](c2cc(C(F)(F)F)cc(C(F)(F)F)c2)[C@@H]1C | 4.9 |
| COc1ncc(-c2ccc(C(=O)O)cc2C)cc1-c1ccc(C(F)(F)F)cc1CN1C(=O)O[C@H](c2cc(C(F)(F)F)cc(C(F)(F)F)c2)[C@@H]1C | 5.4 |
| COc1ccc(-c2ccc(C(=O)O)cc2C)cc1-c1ccc(N(C)C)nc1[C@@H]1CC[C@H]2[C@@H](c3cc(C(F)(F)F)cc(C(F)(F)F)c3)OC(=O)N12 | 5.8 |
| COc1cc(F)c(C(C)C)cc1-c1cnc(N(C)C)cc1[C@@H]1CC[C@H]2[C@@H](c3cc(C(F)(F)F)cc(C(F)(F)F)c3)OC(=O)N12 | 7 |
| COc1ccc(-c2ccc(C(=O)O)cc2C)cc1-c1cnc(N(C)C)nc1CN1C(=O)O[C@H](c2cccc(Cl)c2)[C@@H]1C | 4 |
| COc1ccc(-c2ccc(C(=O)O)cc2C)cc1-c1cnc(N(C)C)nc1CN1C(=O)O[C@H](c2cccc(C(F)(F)F)n2)[C@@H]1C | 3.8 |
| COc1ccc(-c2ccc(C(=O)O)cc2C)cc1-c1cnc(N(C)C)nc1CN1C(=O)O[C@H](c2cc(Cl)cc(Cl)c2)[C@@H]1C | 4.6 |
| COc1cc(F)c(C(C)C)cc1-c1ccc(C(F)(F)F)cc1[C@@H]1CC[C@H]2[C@@H](c3cc(Cl)cc(Cl)c3)OC(=O)N12 | 6.1 |
| COc1ncc(-c2ccc(C(=O)O)cc2C)cc1-c1ccc(C(F)(F)F)cc1[C@@H]1CC[C@H]2[C@@H](c3cccc(C(F)(F)F)c3)OC(=O)N12 | 4.7 |
| COc1ccc([C@H]2C[C@H](C(=O)O)C2)cc1-c1ccc(C(F)(F)F)cc1[C@@H]1CC[C@H]2[C@@H](c3cc(C(F)(F)F)cc(C(F)(F)F)c3)OC(=O)N12 | 5.1 |
| COc1cc(F)c(C(C)C)cc1-c1ccc(C(F)(F)F)cc1[C@@H]1CC[C@H]2[C@@H](c3cccc(C(F)(F)F)c3)OC(=O)N12 | 6.1 |
| COc1ccc(-c2ccc(C(=O)O)cc2C)cc1-c1cnc(C(C)(F)F)nc1CN1C(=O)O[C@H](c2cc(C(F)(F)F)cc(C(F)(F)F)c2)[C@@H]1C | 4.6 |
| COc1ccc(-c2ccc(C(=O)O)cc2C)cc1-c1ncc(C(F)(F)F)cc1[C@@H]1CC[C@H]2[C@@H](c3cc(C(F)(F)F)cc(C(F)(F)F)c3)OC(=O)N12 | 4.6 |
| COc1ncc(-c2ccc(C(=O)O)cc2C)cc1-c1cc(C)c(C(F)(F)F)cc1[C@@H]1CC[C@H]2[C@@H](c3cc(C(F)(F)F)cc(C(F)(F)F)c3)OC(=O)N12 | 5.8 |
| COc1ccc(-c2ccc(C(=O)O)cc2C)cc1-c1ccc(C(F)(F)F)nc1CN1C(=O)O[C@H](c2cc(C(F)(F)F)cc(C(F)(F)F)c2)[C@@H]1C | 5.3 |
| COc1ccc(-c2ccc(C(=O)O)cc2C)cc1-c1c(C)cc(C(F)(F)F)cc1[C@@H]1CC[C@H]2[C@@H](c3cc(C(F)(F)F)cc(C(F)(F)F)c3)OC(=O)N12 | 6 |

| SMILES | logD |
| --- | --- |
| COc1ncc(-c2ccc(C(=O)O)cc2C)cc1-c1ccc(C(F)(F)F)cc1[C@@H]1CC[C@H]2[C@@H](c3cc(F)cc(C(F)(F)F)c3)OC(=O)N12 | 5 |
| COc1ccc(-c2ccc(C(=O)O)cc2C)cc1-c1cnc(C(F)(F)F)cc1CN1C(=O)O[C@H](c2cc(C(F)(F)F)cc(C(F)(F)F)c2)[C@@H]1C | 4.7 |
| COc1ncc(-c2ccc(C(=O)O)cc2C)cc1-c1cnc(C(F)(F)F)cc1CN1C(=O)O[C@H](c2cc(C(F)(F)F)cc(C(F)(F)F)c2)[C@@H]1C | 4.5 |
| COc1ccc([C@@H]2C[C@@H](O)[C@@H](O)C2)cc1-c1ccc(C(F)(F)F)cc1[C@@H]1CC[C@H]2[C@@H](c3cc(C(F)(F)F)cc(C(F)(F)F)c3)OC(=O)N12 | 5.7 |
| COc1cc(F)c(-c2ccc(C(=O)O)cc2C)cc1-c1cnc(C2CC2)cc1[C@@H]1CC[C@H]2[C@@H](c3cc(C(F)(F)F)cc(C(F)(F)F)c3)OC(=O)N12 | 4.8 |
| COc1ccc(-c2ccc(C(=O)O)cc2C)cc1-c1cnc(N(C)C)nc1CN1C(=O)O[C@H](c2cccc(OC(F)(F)F)c2)[C@@H]1C | 4.3 |
| COc1ncc(-c2ccc(C(=O)O)cc2C)cc1-c1c(C)cc(C(F)(F)F)cc1[C@@H]1CC[C@H]2[C@@H](c3cc(C(F)(F)F)cc(C(F)(F)F)c3)OC(=O)N12 | 5.7 |
| COc1cc(F)c(C(C)C)cc1-c1ccc(C(F)(F)F)cc1[C@@H]1CC[C@H]2[C@@H](c3cc(C(F)(F)F)cc(C(F)(F)F)c3)OC(=O)N12 | 7.1 |
| COc1ncc(-c2ccc(C(=O)O)cc2C)cc1-c1cnc(C(F)(F)F)cc1[C@@H]1CC[C@H]2[C@@H](c3cc(C(F)(F)F)cc(C(F)(F)F)c3)OC(=O)N12 | 4.6 |
| COc1ccc(-c2ccc(C(=O)O)cc2C)cc1-c1cnc(N(C)C)nc1CN1C(=O)O[C@H](c2cc(Cl)cc(C(F)(F)F)c2)[C@@H]1C | 4.6 |
| COc1ncc(-c2c(C)cc(C(=O)O)cc2C)cc1-c1ccc(C(F)(F)F)nc1[C@@H]1CC[C@H]2[C@@H](c3cc(C(F)(F)F)cc(C(F)(F)F)c3)OC(=O)N12 | 5.8 |
| COc1ccc(C2CNC(=O)OC2(C)C)cc1-c1ccc(C(F)(F)F)cc1[C@@H]1CC[C@H]2[C@@H](c3cc(C(F)(F)F)cc(C(F)(F)F)c3)OC(=O)N12 (stereo partly specified) | 5.7 |
| COc1cc(F)c(-c2ccc(C(=O)O)cc2C)cc1-c1cc(C)c(C(F)(F)F)cc1[C@@H]1CC[C@H]2[C@@H](c3cc(C(F)(F)F)cc(C(F)(F)F)c3)OC(=O)N12 | 6 |
| COc1ccc(-c2ccc(C(=O)O)cc2C)cc1-c1cnc(N(C)C)nc1CN1C(=O)O[C@H](c2ccc(OC(F)(F)F)cc2)[C@@H]1C | 4.3 |
| COc1ccc(-c2ccc(C(=O)O)cc2C)cc1-c1cnc(N2CCCC2)nc1CN1C(=O)O[C@H](c2cc(C(F)(F)F)cc(C(F)(F)F)c2)[C@@H]1C | 5.2 |
| COc1cc(F)c(-c2ccc(-c3nnc(N)o3)cc2C)cc1-c1ccc(C(F)(F)F)cc1[C@@H]1CC[C@H]2[C@@H](c3cc(C)cc(C(F)(F)F)c3)OC(=O)N12 | 6.6 |
| COc1ccc([C@H]2CC[C@H](C(=O)O)CC2)cc1-c1ccc(C(F)(F)F)cc1[C@@H]1CC[C@H]2[C@@H](c3cc(C(F)(F)F)cc(C(F)(F)F)c3)OC(=O)N12 | 5.6 |
| COc1cc(F)c(C(C)C)cc1-c1ccc(F)cc1[C@@H]1CC[C@H]2[C@@H](c3cc(C(F)(F)F)cc(C(F)(F)F)c3)OC(=O)N12 | 7 |
| COc1ccc(C(C)CC(=O)O)cc1-c1ccc(C(F)(F)F)cc1[C@@H]1CC[C@H]2[C@@H](c3cc(C(F)(F)F)cc(C(F)(F)F)c3)OC(=O)N12 (stereo partly specified) | 5 |

| SMILES | logD |
| --- | --- |
| COc1ccc(-c2c(C)cc(C(=O)O)cc2C)cc1-c1ccc(C(F)(F)F)cc1[C@@H]1CC[C@H]2[C@@H](c3cc(C(F)(F)F)cc(C(F)(F)F)c3)OC(=O)N12 | 5.4 |
| COc1ccc(CCC(=O)O)cc1-c1ccc(C(F)(F)F)cc1[C@@H]1CC[C@H]2[C@@H](c3cc(C(F)(F)F)cc(C(F)(F)F)c3)OC(=O)N12 | 4.7 |
| COc1ccc(-c2ccc(C(=O)O)cc2C)cc1-c1cnc(N(C)C)nc1CN1C(=O)O[C@H](c2cc(F)cc(F)c2)[C@@H]1C | 3.8 |
| COc1cc(F)c(C(C)C)cc1-c1ccc(C(F)(F)F)cc1[C@@H]1CC[C@H]2[C@@H](c3cc(C)cc(C(F)(F)F)c3)OC(=O)N12 | 7 |
| COc1ncc(-c2ccc(C(=O)O)cc2C)cc1-c1cnc(C(F)(F)F)nc1CN1C(=O)O[C@H](c2cc(C(F)(F)F)cc(C(F)(F)F)c2)[C@@H]1C | 4.9 |
| COc1cc(F)c(C(C)C)cc1-c1ccc(C(F)(F)F)cc1[C@@H]1CC[C@H]2[C@@H](c3cc(Cl)cc(C(F)(F)F)c3)OC(=O)N12 | 6.5 |
| COc1ccc(-c2c(C)cc(C(=O)O)cc2C)cc1-c1ncc(C(F)(F)F)cc1[C@@H]1CC[C@H]2[C@@H](c3cc(C(F)(F)F)cc(C(F)(F)F)c3)OC(=O)N12 | 4.8 |
| COc1cc(F)c(C(C)C)cc1-c1ccc(N(C)C)nc1[C@@H]1CC[C@H]2[C@@H](c3cc(C(F)(F)F)cc(C(F)(F)F)c3)OC(=O)N12 | 6.9 |
| COc1ncc(-c2ccc(C(=O)O)cc2C)cc1-c1ncc(C(F)(F)F)cc1[C@@H]1CC[C@H]2[C@@H](c3cc(C(F)(F)F)cc(C(F)(F)F)c3)OC(=O)N12 | 4.5 |
| COc1ccc(-c2ccc(C(=O)O)cc2C)cc1-c1cnc(N2CCOCC2)nc1CN1C(=O)O[C@H](c2cc(C(F)(F)F)cc(C(F)(F)F)c2)[C@@H]1C | 4.8 |
| COc1ccc(-c2ccc(C(=O)O)cc2C)cc1-c1cnc(N(C)C)nc1CN1C(=O)O[C@H](c2cccc(C(F)(F)F)c2)[C@@H]1C | 4.1 |
| COc1ccc(-c2ccc(C(=O)O)cc2C)cc1-c1cnc(N(C)C)nc1CN1C(=O)O[C@H](c2ccnc(C(F)(F)F)c2)[C@@H]1C | 3.2 |
| CCc1ncc(-c2cc(-c3ccc(C(=O)O)cc3C)ccc2OC)c(CN2C(=O)O[C@H](c3cc(C(F)(F)F)cc(C(F)(F)F)c3)[C@@H]2C)n1 | 4.5 |
| COc1cc(F)c(-c2ccc(C(=O)O)cc2C)cc1-c1ccc(C(F)(F)F)cc1[C@@H]1CC[C@H]2[C@@H](c3cc(F)cc(C(F)(F)F)c3)OC(=O)N12 | 5.1 |
| COc1ccc(-c2ccc(C(=O)O)cc2C)cc1-c1cnc(N(C)C)cc1[C@@H]1CC[C@H]2[C@@H](c3cc(C(F)(F)F)cc(C(F)(F)F)c3)OC(=O)N12 | 4.6 |
| COc1cc(F)c(C(C)C)cc1-c1ccc(C(F)(F)F)cc1[C@@H]1CC[C@H]2[C@@H](c3cc(F)cc(C(F)(F)F)c3)OC(=O)N12 | 6.3 |
| COc1cc(F)c(C(C)C)cc1-c1cnc(N(C)C)nc1[C@@H]1CC[C@H]2[C@@H](c3cc(C(F)(F)F)cc(C(F)(F)F)c3)OC(=O)N12 | 7 |
| COc1ccc([C@H]2CCC(=O)N[C@@H]2C)cc1-c1ccc(C(F)(F)F)cc1[C@@H]1CC[C@H]2[C@@H](c3cc(C(F)(F)F)cc(C(F)(F)F)c3)OC(=O)N12 | 5.9 |
| COc1ccc(-c2ccc(C(=O)O)cc2C)cc1-c1cnc(N(C)C)nc1CN1C(=O)O[C@H](c2cncc(C(F)(F)F)c2)[C@@H]1C | 3.3 |

assay: Solubility of the compound in pH 7 phosphate buffer by shake-flask method; type: physicochemical; details: not given

| SMILES | solubility thermodynamic [µM] |
| --- | --- |
| COc1ncc(-c2ccc(C(=O)O)cc2C)cc1-c1cc(C(F)(F)F)c(OC)nc1CN1C(=O)O[C@H](c2cc(C(F)(F)F)cc(C(F)(F)F)c2)[C@@H]1C | 5 (≈ 3.72 µg/mL) |
| COc1ccc(-c2ccc(C(=O)O)cc2C)cc1-c1cnc(C(F)(F)F)nc1CN1C(=O)O[C@H](c2cc(C(F)(F)F)cc(C(F)(F)F)c2)[C@@H]1C | 6 (≈ 4.28 µg/mL) |
| COc1ccc(-c2ccc(C(=O)O)cc2C)cc1-c1cnc(C(C)(F)F)nc1CN1C(=O)O[C@H](c2cc(C(F)(F)F)cc(C(F)(F)F)c2)[C@@H]1C | 20 (≈ 14.2 µg/mL) |
| COc1ccc(-c2ccc(C(=O)O)cc2C)cc1-c1ccc(C(F)(F)F)nc1CN1C(=O)O[C@H](c2cc(C(F)(F)F)cc(C(F)(F)F)c2)[C@@H]1C | 29 (≈ 20.7 µg/mL) |
